“Also recorded” adds a separate entry of the source.
Experiments:
P. aeruginosa persisters = test: Persister cell eradication: carbon sources plus tobramycin, survival by c.f.u. counting; assay type: cell-based, Pseudomonas aeruginosa; details: for potentiation of tobramycin killing of persisters by carbon source (efficiency of tested metabolites): tobramycin 40 mg/l, carbon sources normalized to 60 mM carbon, M9 minimal media, ciprofloxacin-selected persisters; for potentiation of antibiotic efficacy / sensitization to aminoglycoside antibiotics: P. aeruginosa cells in various reduced metabolic states, in conjunction with aminoglycosides
[1] = system: P. aeruginosa stationary phase cells; test: Stationary phase cells eradication: carbon sources plus tobramycin, survival by c.f.u. counting; assay type: cell-based, Pseudomonas aeruginosa
Method: Cells from frozen stock were plated overnight at 37° C., following which a single colony forming unit (CFU) was grown in Luria-Bertani (LB) broth at 300 r.p.m. and 80% humidity to an optical density at 600 nm (OD600) of 0.3. Cells were then diluted 1:1,000 in 25 ml LB and grown for 16 h at 37° C., 300 r.p.m. and 80% humidity in 250 ml flasks. Cells were then washed (Spin 5000 rpm (Thermofisher centrifuge) for 15 mins. Samples were then washed with 20 ml of 1× filtered PBS (again spin 5000 rpm for 15 mins) and re-suspended in M9 minimal media. Carbon sources and antibiotics (tobramycin 40 mg/l) were added and samples were incubated at 37° C., 300 r.p.m. and 80% humidity At specified time points, 10-μl aliquots of cells were removed and washed with PBS, serially diluted and spot-plated onto LB agar plates to determine colony-forming units per ml (c.f.u. ml−1). The concentration of carbon sources were normalized to deliver 60 mM carbon (for example 10 mM glucose, 15 mM fumarate, 20 mM pyruvate etc.). Survivors were enumerated by plating 10 ul aliquots with serial dilutions taken from 1 ml spun down and PBS washed (remaining AB). […] Survival was determined by dividing the c.f.u. ml−1 of a sample at each time point by the initial c.f.u. ml−1 for that sample.

[2] = i.v. administration; cited from earlier work

SMILES	potentiation of tobramycin killing of persisters by carbon source (efficiency of tested metabolites) (P. aeruginosa persisters)	potentiation of antibiotic efficacy / sensitization to aminoglycoside antibiotics (P. aeruginosa persisters)	also measured
O=C(CO)[C@@H](O)[C@H](O)[C@H](O)CO [Fructose, fructose]	not efficient	–	–
OC[C@@H](O)[C@@H](O)[C@H](O)[C@H](O)CO [Mannitol, mannitol]	not efficient	–	–
O=C(O)/C=C/C(=O)O [fumarate]	most potent	very strong results	killing with incremental doses of fumarate for a given dose of tobramycin ([1]; FIG. 2, tobramycin 40 mg/L): increased killing; killing of P. aeruginosa in stationary phase by tobramycin ([1]; FIGS. 2A-2B): enables killing
O=C(O)[C@H](O)[C@@H](O)[C@H](O)[C@H](O)CO [gluconate]	variable levels of efficiency	–	–
CCC(=O)O [propionate]	recapitulated this to some effect	sensitize the bacterium to aminoglycoside antibiotics	–
O=C(O)CCC(=O)O [succinate]	most potent	very strong results	–
NC[C@H]1O[C@H](O[C@H]2[C@H](O)[C@@H](O[C@H]3O[C@H](CO)[C@@H](O)[C@H](N)[C@H]3O)[C@H](N)C[C@@H]2N)[C@H](N)C[C@@H]1O [tobramycin, reference compound]	–	–	typical peak serum concentration [2]: 40 mg/L; killing with incremental doses of tobramycin for a given fumarate ([1]; FIG. 2, administered with fumarate): increased killing; also recorded: higher killing
